In the NIST ThermoML archive (doi:10.1016/j.jct.2017.05.042):

Details: 101.33 kPa, Liquid, Concentric cylinders viscometry

OCC(O)CO [glycerol]
Details	viscosity [mPa·s]
292.89 K	1470
298.1 K	970.6
302.59 K	645.8
312.81 K	305.3
323.88 K	147.4
333.15 K	84.71
343.8 K	49.83
353.67 K	31.8
364.12 K	21.05
374.38 K	14.74
383.29 K	11
394.08 K	8.32
